pIC50: −log10 of the molar value.

Assay [1] has as its target T1, endothelin converting enzyme (Bos taurus, UniProt P42891).
T1 construct: Samples of endothelin converting enzyme (ECE) were obtained essentially according to the method of Okada et al; endogenous in cells; By own knowledge of Okada et al. 1990: membrane fraction of cultured bovine endothelial cells
T1 sequence (P42891 1-754): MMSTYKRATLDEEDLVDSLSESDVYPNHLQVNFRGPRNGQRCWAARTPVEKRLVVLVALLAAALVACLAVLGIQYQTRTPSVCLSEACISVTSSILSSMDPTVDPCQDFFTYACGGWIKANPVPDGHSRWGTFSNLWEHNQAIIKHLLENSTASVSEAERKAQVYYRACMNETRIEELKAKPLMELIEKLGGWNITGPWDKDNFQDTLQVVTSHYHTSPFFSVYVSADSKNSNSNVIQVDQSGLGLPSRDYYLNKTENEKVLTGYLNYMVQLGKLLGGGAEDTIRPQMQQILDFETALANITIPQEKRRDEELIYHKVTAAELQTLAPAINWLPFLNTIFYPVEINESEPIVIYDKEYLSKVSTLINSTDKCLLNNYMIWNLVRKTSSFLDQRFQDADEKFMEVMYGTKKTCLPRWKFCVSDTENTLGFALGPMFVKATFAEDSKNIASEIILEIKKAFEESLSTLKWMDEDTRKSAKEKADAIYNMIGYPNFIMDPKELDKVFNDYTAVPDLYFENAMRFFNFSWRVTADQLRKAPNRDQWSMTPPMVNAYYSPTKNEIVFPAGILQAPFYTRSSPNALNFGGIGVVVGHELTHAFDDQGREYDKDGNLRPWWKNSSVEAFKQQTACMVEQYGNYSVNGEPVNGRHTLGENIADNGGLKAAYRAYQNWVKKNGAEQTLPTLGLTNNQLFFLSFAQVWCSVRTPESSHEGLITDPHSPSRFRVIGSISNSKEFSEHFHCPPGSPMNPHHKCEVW
Briefly: Zones of enzyme inhibition in Sephacryl gel with fluorogenic FRET substrate, fluorescence imaging. It is filed as biochemical. The conditions noted are these: beads impregnated with 10mM solution in DMSO; gel left at ambient temperature overnight; FRET substrate 4micromolar.
Description: In this example, polystyrene beads are impregnated with a compound (phosphoramidon) to simulate the situation that would arise when a compound is made on a bead and then released prior to contacting the assay medium. The assay medium comprises a Sephacryl™ gel containing an enzyme, endothelin converting enzyme, and a fluorogenic FRET substrate, following by fluorescence imaging of the gel.
Ca 300 beads as used in Example 1 were suspended in a solution of phosphoramidon (10mM) in DMSO, allowed to swell and washed briefly in DMSO.
The FRET substrate, was derived from that of human big endothelin-1, 16-37, with Glu-26 changed to Cys: [formula] Fluorescein had been attached to Cys-26 and tetramethylrhodamine attached to the N-terminus, such that cleavage of the substrate removes the quenching effect of the tetramethylrhodamine resulting in an increase of fluorescein fluorescence.
The assay phase was assembled as follows. Sephacryl™ S-500 gel was suspended in 0.2M Tris/HCl pH 7.2 containing 0.5% BSA and then washed with buffer alone. To this gel suspension (24.5ml) was added the FRET substrate (3ml, 4micromolar final) and ECE (2.6 microlitres). After gentle mixing, the gel was poured into the polystyrene lid of a microtitre plate, allowed to settle and excess liquid gently removed with a tissue. […] The gel was then imaged on a fluorescence imager (FluorImager, Molecular Dynamics).

In assay [2] the target is endothelin receptor. Briefly: IC-50 determination by conventional filtration techniques (Holland et al.). It is filed as binding.
Assay [3] concerns porcine endothelin receptor. Briefly: Zone screening scintillation proximity assay in agarose gel, [125-I]Endothelin binding to receptor-coated SPA microspheres. The conditions noted are these: one bead per well. Here is the method: Agarose (Sigma) was suspended in distilled water and heated to boiling point in a microwave to melt, then cooled to 50 deg. C. Microspheres coated with the porcine endothelin receptor (1 vial, SPA, Amersham) were re-constituted in assay buffer (50 mM Tris.HCl, 1 mM EDTA, 0.1% BSA, 10 mM MgC12, pH 6.4 (25 ml). This suspension (10 ml) was then added to the cooled (50 deg. C) agarose (10 ml), vortexed mixed and 0.1 ml portions immediately added to wells of a white microtitre plate (Picoplate-96, Packard).
Test compounds were prepared as follows. Polystyrene beads (as used in example 1) were suspended in DMSO solutions of endothelin-1 (Cambridge Research Biochemicals) or various test compounds (T1 - T4) at various concentrations (see Table 1) for about 2 hours. After a spin (1 min.) on a micro-fuge, the beads were washed briefly in ethanol. Single beads were then transfered with forceps into the centre of the wells containing the SPA/agarose mix, one bead per well.
[125-I]Endothelin (Amersham) was diluted into the assay buffer to give a 180 pM solution. 6 ml of this was added to 6 ml of 1% agarose (at 50 deg. C) and vortexed mixed. 0.05 ml aliquots were then immediately added to each well. The plate was then sealed (Topseal-S, Packard) and counted at intervals (Top Count, Packard) for 2 minutes per well. By reference to a total control (no compound present) and non-specific binding control (40 micromolar endothelin-1, measured after 8 hours incubation), the per cent inhibition caused by each compound as it diffused away from the bead was calculated.
This inhibition is related to the potency of the compound. […]
On the technique in general: Scintillation proximity formats need no separation of bound from free tracer.

In the case of `CC(C)C[C@H](NP(=O)(O)O[C@@H]1O[C@@H](C)[C@H](O)[C@@H](O)[C@H]1O)C(=O)N[C@@H](Cc1c[nH]c2ccccc12)C(=O)O` [phosphoramidon], the “zones of enzyme inhibition in gel (fluorescence image)” value in assay [1] is on record as “zones of reduced fluorescence”.

One may read the pIC50 as the negative decadic logarithm of the IC50, by convention in mol/L. Low readings indicate a large IC50, high ones a small IC50. Take endothelin-1: the pIC50 in assay [2] was 9.74. For the same molecule, the “inhibition (%)” value in assay [3] (readings at 2 hours, bead soaked in 1.25 micromolar DMSO solution) is recorded as -0.6%; in assay [3] (readings at 2 hours, bead soaked in 2.5 micromolar DMSO solution) it was 12.3%; in assay [3] (readings at 2 hours, bead soaked in 5 micromolar DMSO solution), 19.5%; in assay [3] (readings at 2 hours, bead soaked in 10 micromolar DMSO solution), 36.3%; in assay [3] (readings at 2 hours, bead soaked in 20 micromolar DMSO solution) it was 85.2%; in assay [3] (readings at 2 hours, bead soaked in 40 micromolar DMSO solution), “(100) %”. In addition, the “inhibition (%)” value in assay [3] (readings at 8 hours, bead soaked in 1.25 micromolar DMSO solution) was 6.5%; in assay [3] (readings at 8 hours, bead soaked in 2.5 micromolar DMSO solution) it was 14.0%; in assay [3] (readings at 8 hours, bead soaked in 5 micromolar DMSO solution) it was 18.2%; in assay [3] (readings at 8 hours, bead soaked in 10 micromolar DMSO solution), 40.0%; in assay [3] (readings at 8 hours, bead soaked in 20 micromolar DMSO solution) it was 47.5%; in assay [3] (readings at 8 hours, bead soaked in 40 micromolar DMSO solution) it was “(100) %”.
